What was measured:
MLLT1 = biological target: T1, MLLT1 (Homo sapiens, UniProt Q03111); assay: MLLT1 degradation assay in MV4-11 cells (JESS, 24 h); format: cell-based; set-up: endogenous in cells; host or cells: MV4-11 (ATCC CRL-9591); conditions: vs DMSO control
T1 sequence (Q03111 1-559): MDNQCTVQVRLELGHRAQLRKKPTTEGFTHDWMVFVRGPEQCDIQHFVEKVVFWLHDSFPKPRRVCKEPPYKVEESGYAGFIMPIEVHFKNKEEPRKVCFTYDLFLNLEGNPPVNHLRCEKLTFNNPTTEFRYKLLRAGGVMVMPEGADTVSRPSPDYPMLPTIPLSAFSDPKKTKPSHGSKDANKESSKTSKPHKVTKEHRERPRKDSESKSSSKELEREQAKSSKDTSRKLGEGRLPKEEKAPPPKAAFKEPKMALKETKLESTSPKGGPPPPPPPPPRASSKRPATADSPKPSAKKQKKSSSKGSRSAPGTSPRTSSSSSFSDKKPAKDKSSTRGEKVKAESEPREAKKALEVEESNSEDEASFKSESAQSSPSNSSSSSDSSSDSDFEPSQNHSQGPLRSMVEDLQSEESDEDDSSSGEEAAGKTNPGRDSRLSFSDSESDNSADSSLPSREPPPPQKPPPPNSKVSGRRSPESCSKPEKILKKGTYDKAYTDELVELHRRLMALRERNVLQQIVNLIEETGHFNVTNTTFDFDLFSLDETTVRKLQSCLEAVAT
Experimental: MLLT1 degradation efficacy of compounds was tested in an automated chemiluminescent detection system (JESS, Cat #004-650). MV4-11 (#CRL-9591, ATCC) cells were seeded at a density of 1.2 million cells/well in a non-treated 6-well cell culture plate in 2.4 mL of complete medium (IMDM+10% FBS+1× Penicillin-Streptomycin). 10 mM DMSO stocks were prepared, and cells were treated with three concentrations of test compounds viz. 1000, 100 and 10 nM at a final DMSO concentration of 0.1% and incubated for 24 h at 37° C., 5% CO2. Post incubation, cells were centrifuged, washed with HBSS and lysed in 70 μL of RIPA buffer supplemented with Protease inhibitors (sc-24948; Santa Cruz). Subsequently, protein estimation was done using BCA protein assay kit (23225; Pierce). 4 ug protein lysate (4 uL of 1 ug/uL lysate) was loaded into each well of the JESS cartridge (SM-W001; Bio-techne) and the JESS run was performed using 1:900 dilution of anti-human MLLT1 antibody (14893; Cell signaling technology) and 1:1200 dilution of anti-human GAPDH antibody (2118; Cell signaling technology) with anti-rabbit secondary detection module (DM-001; Bio-Techne). Post run, data were analysed using “Compass for SW” software for chemiluminescent detection. The peak area for each band was used for the calculation of MLLT1 degradation with respect to DMSO control. Data is shown as “MLLT1% degradation”. • Category A: A≥75% degradation • Category B: 50%≤B<75% degradation • Category C: 25%≤C<50% degradation • Category D: D<25% degradation

MV4-11 cells = assay: MV4-11 cellular proliferative assay, Assay Format A (CellTiter-Glo, 120 h); format: cell-based; conditions: Homo sapiens, Assay format A, 120 h, read-out: IC50 (MV4-11 cellular proliferative assay)
Experimental: An MV4-11 proliferation assay was used to test the ability of compounds to reduce cell viability. MV4-11 cells (ATCC #CRL9591) were grown in IMDM medium (11510596, Gibco) supplemented with 10% fetal bovine serum (F7524, Gibco) and 1% Penicillin/Streptomycin (15140-122, Gibco) at 37° C. with 5% CO2. Cells were seeded in 384-well Elplasia plates (4447, Corning) at a density of 50 cells/well and treated with vehicle (DMSO) or compounds (10 serial semi-log dilutions, 30 μM as top concentration).
After 120 hours of treatment, cells were incubated for 10 min at RT with the CellTiter-Glo (CTG) reagent (G7571, Promega). Measurement of the luminescence signal was performed on a microplate reader (Ensight, PerkinElmer). CTG reagent measures the amount of ATP, which is directly proportional to the number of cells, to determine the number of viable cells in culture.
The data were analysed as follows:
[formula] • where x is the measured raw signal value of a well, (cr) is the median of the measured signal values for the Central Reference (DMSO) wells on a plate, (sr) is the median of the measured signal values for the Scale Reference (reference compound) wells on a plate.
[formula] • where the experimental set-up assumes the Hill parameters in certain ranges: S0~Central Reference (CR) from normalization (=Bottom), Sinf~Scale Reference (SR) from normalization (=Top), nHill ~1, AC50~within the measured concentration range.

Compound	MLLT1% Degradation @ 0.01 μM (MLLT1)	MLLT1% Degradation @ 0.1 μM (MLLT1)	MLLT1% Degradation @ 1 μM (MLLT1)	IC50 (MV4-11 cells) [nM]
Cc1nn(CCCCCCCCNc2cccc3c2C(=O)N(C2CCC(=O)NC2=O)C3=O)c2cc(C(=O)Nc3cc4[nH]c(C5CCCN5C)cc4cn3)ccc12 (racemic) [Example 2, rac-1-(8-{[2-(2,6-dioxopiperidin-3-yl)-1,3-dioxoisoindol-4-yl]amino}octyl)-3-methyl-N-[2-(1-methylpyrrolidin-2-yl)-1H-pyrrolo[3,2-c]pyridin-6-yl]indazole-6-carboxamide]	B (Category B: 50%≤B<75% degradation)	A (Category A: A≥75% degradation)	A (Category A: A≥75% degradation)	< 100
Cc1nn(CCCCCCCCNc2ccc3c(c2)C(=O)N(C2CCC(=O)NC2=O)C3=O)c2cc(C(=O)Nc3cc4[nH]c([C@H]5CCCN5C)cc4cn3)ccc12 (stereo partly drawn) [Example 14, 1-(8-{[2-(2,6-dioxopiperidin-3-yl)-1,3-dioxoisoindol-5-yl]amino}octyl)-3-methyl-N-{2-[(2R)-1-methylpyrrolidin-2-yl]-1H-pyrrolo[3,2-c]pyridin-6-yl}indazole-6-carboxamide]				< 100
Cc1nn(CCCCCCCC#Cc2cccc(N3CCC(=O)NC3=O)c2F)c2cc(C(=O)Nc3cc4[nH]c([C@H]5CCCN5C)cc4cn3)ccc12 [Example 63, (R)-1-(9-(3-(2,4-dioxotetrahydropyrimidin-1 (2H)-yl)-2-fluorophenyl)non-8-yn-1-yl)-3-methyl-N-(2-(1-methylpyrrolidin-2-yl)-1H-pyrrolo [3,2-c]pyridin-6-yl)-1H-indazole-6-carboxamide]	D (Category D: D<25% degradation)	B (Category B: 50%≤B<75% degradation)	A (Category A: A≥75% degradation)	
Cc1nn(CCCCCCCC#Cc2cc3c(cc2F)c(N2CCC(=O)NC2=O)nn3C)c2cc(C(=O)Nc3cc4[nH]c([C@H]5CCCN5C)cc4cn3)ccc12 [Example 65, (R)-1-(9-(3-(2,4-dioxotetrahydropyrimidin-1 (2H)-yl)-5-fluoro-1-methyl-1H-indazol-6-yl)non-8-yn-1-yl)-3-methyl-N-(2-(1-methylpyrrolidin-2-yl)-1H-pyrrolo[3,2-c]pyridin-6-yl)-1H-indazole-6-carboxamide]	C (Category C: 25%≤C<50% degradation)	B (Category B: 50%≤B<75% degradation)	A (Category A: A≥75% degradation)	
Cc1nn(CCCCCCC2CCN(c3cccc(C(=O)N[C@H]4CCC(=O)NC4=O)n3)CC2)c2cc(C(=O)Nc3cc4[nH]c([C@H]5CCCN5C)cc4cn3)ccc12 [Example 73, 1-(6-(1-(6-(((S)-2,6-dioxopiperidin-3-yl)carbamoyl)pyridin-2-yl)piperidin-4-yl)hexyl)-3-methyl-N-(2-((R)-1-methylpyrrolidin-2-yl)-1H-pyrrolo[3,2-c]pyridin-6-yl)-1H-indazole-6-carboxamide]	B (Category B: 50%≤B<75% degradation)	A (Category A: A≥75% degradation)	A (Category A: A≥75% degradation)	

The next lines start with the values.

MLLT1% Degradation @ 0.01 μM (MLLT1)	MLLT1% Degradation @ 0.1 μM (MLLT1)	MLLT1% Degradation @ 1 μM (MLLT1)	IC50 (MV4-11 cells) [nM]	Compound
B (Category B: 50%≤B<75% degradation)	A (Category A: A≥75% degradation)	A (Category A: A≥75% degradation)	< 100	Cc1nn(CCCCCCCCNc2cccc3c2C(=O)N(C2CCC(=O)NC2=O)C3=O)c2cc(C(=O)Nc3cc4[nH]c([C@H]5CCCN5C)cc4cn3)ccc12 (stereo partly drawn) [Example 3, 1-(8-{[2-(2,6-dioxopiperidin-3-yl)-1,3-dioxoisoindol-4-yl]amino}octyl)-3-methyl-N-{2-[(2R)-1-methylpyrrolidin-2-yl]-1H-pyrrolo[3,2-c]pyridin-6-yl}indazole-6-carboxamide]
			< 100	Cc1nn(C2CCN(CCCNc3cccc4c3C(=O)N(C3CCC(=O)NC3=O)C4=O)CC2)c2cc(C(=O)Nc3cc4[nH]c([C@H]5CCCN5C)cc4cn3)ccc12 (stereo partly drawn) [Example 7, 1-[1-(3-{[2-(2,6-dioxopiperidin-3-yl)-1,3-dioxoisoindol-4-yl]amino}propyl)piperidin-4-yl]-3-methyl-N-{2-[(2R)-1-methylpyrrolidin-2-yl]-1H-pyrrolo[3,2-c]pyridin-6-yl}indazole-6-carboxamide]
			< 100	Cc1nn(CCCCCCCCOc2ccc3c(c2)C(=O)N(C2CCC(=O)NC2=O)C3=O)c2cc(C(=O)Nc3cc4[nH]c([C@H]5CCCN5C)cc4cn3)ccc12 (stereo partly drawn) [Example 8, 1-(8-{[2-(2,6-dioxopiperidin-3-yl)-1,3-dioxoisoindol-5-yl]oxy}octyl)-3-methyl-N-{2-[(2R)-1-methylpyrrolidin-2-yl]-1H-pyrrolo[3,2-c]pyridin-6-yl}indazole-6-carboxamide]
B (Category B: 50%≤B<75% degradation)	B (Category B: 50%≤B<75% degradation)	B (Category B: 50%≤B<75% degradation)	< 100	Cc1nn(CCCCCC#Cc2cccc3c2n(C)c(=O)n3C2CCC(=O)NC2=O)c2cc(C(=O)Nc3cc4[nH]c([C@H]5CCCN5C)cc4cn3)ccc12 (stereo partly drawn) [Example 11, 1-{7-[1-(2,6-dioxopiperidin-3-yl)-3-methyl-2-oxo-1,3-benzodiazol-4-yl]hept-6-yn-1-yl}-3-methyl-N-{2-[(2R)-1-methylpyrrolidin-2-yl]-1H-pyrrolo[3,2-c]pyridin-6-yl}indazole-6-carboxamide]
			< 100	Cc1nn(CCCCCCCCOc2cccc3c2C(=O)N(C2CCC(=O)NC2=O)C3=O)c2cc(C(=O)Nc3cc4[nH]c([C@H]5CCCN5C)cc4cn3)ccc12 (stereo partly drawn) [Example 12, 1-(8-((2-(2,6-dioxopiperidin-3-yl)-1,3-dioxoisoindolin-4-yl)oxy)octyl)-3-methyl-N-(2-((R)-1-methylpyrrolidin-2-yl)-1H-pyrrolo[3,2-c]pyridin-6-yl)-1H-indazole-6-carboxamide]
			< 100	Cc1nn(CCCNc2cccc3c2C(=O)N(C2CCC(=O)NC2=O)C3=O)c2cc(C(=O)Nc3cc4[nH]c([C@H]5CCCN5C)cc4cn3)ccc12 (stereo partly drawn) [Example 13, 1-(3-((2-(2,6-dioxopiperidin-3-yl)-1,3-dioxoisoindolin-4-yl)amino)propyl)-3-methyl-N-(2-((R)-1-methylpyrrolidin-2-yl)-1H-pyrrolo[3,2-c]pyridin-6-yl)-1H-indazole-6-carboxamide]
			< 100	Cc1nn(CCCCCCCCNc2cccc3c2CN(C2CCC(=O)NC2=O)C3=O)c2cc(C(=O)Nc3cc4[nH]c([C@@H]5CCCN5C)cc4cn3)ccc12 (stereo partly drawn) [Example 17, 1-(8-{[2-(2,6-dioxopiperidin-3-yl)-1-oxo-3H-isoindol-4-yl]amino}octyl)-3-methyl-N-{2-[(2S)-1-methylpyrrolidin-2-yl]-1H-pyrrolo[3,2-c]pyridin-6-yl}indazole-6-carboxamide]
			< 100	Cc1nn(CCCCN2CCN(c3ccc4c(c3)C(=O)N(C3CCC(=O)NC3=O)C4=O)CC2)c2cc(C(=O)Nc3cc4[nH]c([C@H]5CCCN5C)cc4cn3)ccc12 (stereo partly drawn) [Example 19, 1-(4-{4-[2-(2,6-dioxopiperidin-3-yl)-1,3-dioxoisoindol-5-yl]piperazin-1-yl}butyl)-3-methyl-N-{2-[(2R)-1-methylpyrrolidin-2-yl]-1H-pyrrolo[3,2-c]pyridin-6-yl}indazole-6-carboxamide]
